Reference: ChEMBL document CHEMBL5303573, “Mapping human microbiome drug metabolism by gut bacteria and their genes” (Nature, 2019)

Key:
[1] = The drug is tested on Collinsella aerofaciens strain: ATCC25986 for biotransformation. The drug concentrations were measured before and after a 12-h incubation by liquid-chromatography-coupled mass spectrometry (LC–MS); conditions: 2 µM
[2] = The drug is tested on Collinsella intestinalis strain: DSM13280 for biotransformation. The drug concentrations were measured before and after a 12-h incubation by liquid-chromatography-coupled mass spectrometry (LC–MS); conditions: 2 µM
[3] = The drug is tested on Alistipes indistinctus strain: DSM22520 for biotransformation. The drug concentrations were measured before and after a 12-h incubation by liquid-chromatography-coupled mass spectrometry (LC–MS); conditions: 2 µM
[4] = The drug is tested on Bacteroides dorei strain: DSM17855 for biotransformation. The drug concentrations were measured before and after a 12-h incubation by liquid-chromatography-coupled mass spectrometry (LC–MS); conditions: phocaeicola dorei, 2 µM
[5] = The drug is tested on Bacteroides finegoldii strain: DSM17565 for biotransformation. The drug concentrations were measured before and after a 12-h incubation by liquid-chromatography-coupled mass spectrometry (LC–MS); conditions: 2 µM
[6] = The drug is tested on Bacteroides fragilis strain: HMW615 for biotransformation. The drug concentrations were measured before and after a 12-h incubation by liquid-chromatography-coupled mass spectrometry (LC–MS); conditions: 2 µM
[7] = The drug is tested on Bacteroides uniformis strain: ATCC8492 for biotransformation. The drug concentrations were measured before and after a 12-h incubation by liquid-chromatography-coupled mass spectrometry (LC–MS); conditions: 2 µM
[8] = The drug is tested on Bacteroides vulgatus strain: ATCC8482 for biotransformation. The drug concentrations were measured before and after a 12-h incubation by liquid-chromatography-coupled mass spectrometry (LC–MS); conditions: phocaeicola vulgatus, 2 µM
[9] = The drug is tested on Odoribacter splanchnicus strain: fecal isolate for biotransformation. The drug concentrations were measured before and after a 12-h incubation by liquid-chromatography-coupled mass spectrometry (LC–MS); conditions: 2 µM
[10] = The drug is tested on Anaerococcus hydrogenalis strain: DSM7454 for biotransformation. The drug concentrations were measured before and after a 12-h incubation by liquid-chromatography-coupled mass spectrometry (LC–MS); conditions: 2 µM
[11] = The drug is tested on Blautia hansenii strain: DSM20583 for biotransformation. The drug concentrations were measured before and after a 12-h incubation by liquid-chromatography-coupled mass spectrometry (LC–MS); conditions: 2 µM
[12] = The drug is tested on Clostridium scindens strain: ATCC35704 for biotransformation. The drug concentrations were measured before and after a 12-h incubation by liquid-chromatography-coupled mass spectrometry (LC–MS); conditions: 2 µM
[13] = The drug is tested on Clostridium sporogenes strain: ATCC15579 for biotransformation. The drug concentrations were measured before and after a 12-h incubation by liquid-chromatography-coupled mass spectrometry (LC–MS); conditions: 2 µM
[14] = The drug is tested on Eubacterium hallii strain: DSM3353 for biotransformation. The drug concentrations were measured before and after a 12-h incubation by liquid-chromatography-coupled mass spectrometry (LC–MS); conditions: anaerobutyricum hallii, 2 µM
[15] = The drug is tested on Edwardsiella tarda strain: ATCC23685 for biotransformation. The drug concentrations were measured before and after a 12-h incubation by liquid-chromatography-coupled mass spectrometry (LC–MS); conditions: 2 µM
[16] = The drug is tested on Escherichia coli strain: BW25113 for biotransformation. The drug concentrations were measured before and after a 12-h incubation by liquid-chromatography-coupled mass spectrometry (LC–MS); conditions: 2 µM
[17] = bacteroides stercoris, 12 h, 2 µM
Description: The drug is tested on Bacteroides stercoris strain: ATCC43183 for biotransformation. The drug concentrations were measured before and after a 12-h incubation by liquid-chromatography-coupled mass spectrometry (LC–MS)

[18] = bacteroides thetaiotaomicron, 12 h, 2 µM
Description: The drug is tested on Bacteroides thetaiotaomicron strain: 3731 for biotransformation. The drug concentrations were measured before and after a 12-h incubation by liquid-chromatography-coupled mass spectrometry (LC–MS)

[19] = akkermansia muciniphila, 12 h, 2 µM
Description: The drug is tested on Akkermansia muciniphila strain: ATCC BAA-835 for biotransformation. The drug concentrations were measured before and after a 12-h incubation by liquid-chromatography-coupled mass spectrometry (LC–MS)

[20] = The drug is tested on Clostridium ramosum strain: DSM1402 for biotransformation. The drug concentrations were measured before and after a 12-h incubation by liquid-chromatography-coupled mass spectrometry (LC–MS); conditions: thomasclavelia ramosa, 2 µM

Row | SMILES | Bacterial Biotransformation [1] | Bacterial Biotransformation [2] | Bacterial Biotransformation [3] | Bacterial Biotransformation [4] | Bacterial Biotransformation [5] | Bacterial Biotransformation [6] | Bacterial Biotransformation [7] | Bacterial Biotransformation [8] | Bacterial Biotransformation [9] | Bacterial Biotransformation [10] | Bacterial Biotransformation [11] | Bacterial Biotransformation [12] | Bacterial Biotransformation [13] | Bacterial Biotransformation [14] | Bacterial Biotransformation [15] | Bacterial Biotransformation [16] | Bacterial Biotransformation [17] | Bacterial Biotransformation [18] | Bacterial Biotransformation [19] | Bacterial Biotransformation [20]
1 | CCCCC1=NC2(CCCC2)C(=O)N1Cc1ccc(-c2ccccc2-c2nnn[nH]2)cc1 [IRBESARTAN] | Compound metabolized | Compound NOT metabolized | Compound metabolized | Compound metabolized | Compound metabolized | Compound metabolized | Compound metabolized | Compound metabolized | Compound metabolized | Compound metabolized | Compound metabolized | Compound metabolized | Compound NOT metabolized | Compound metabolized | Compound metabolized | Compound metabolized | Compound metabolized | Compound NOT metabolized | Compound NOT metabolized | –
2 | CCOc1ccc(NC(C)=O)cc1 [PHENACETIN] | Compound NOT metabolized | Compound NOT metabolized | Compound NOT metabolized | Compound NOT metabolized | Compound NOT metabolized | Compound NOT metabolized | Compound NOT metabolized | Compound NOT metabolized | Compound NOT metabolized | Compound NOT metabolized | Compound NOT metabolized | Compound NOT metabolized | Compound NOT metabolized | Compound NOT metabolized | Compound NOT metabolized | Compound NOT metabolized | Compound NOT metabolized | Compound NOT metabolized | Compound NOT metabolized | –
3 | O=c1[nH]c2ccccc2n1C1CCN(CCCC(c2ccc(F)cc2)c2ccc(F)cc2)CC1 [PIMOZIDE] | Compound NOT metabolized | Compound NOT metabolized | Compound NOT metabolized | Compound NOT metabolized | Compound NOT metabolized | Compound NOT metabolized | Compound NOT metabolized | Compound NOT metabolized | Compound NOT metabolized | Compound NOT metabolized | Compound NOT metabolized | – | Compound NOT metabolized | Compound NOT metabolized | Compound NOT metabolized | – | Compound NOT metabolized | Compound NOT metabolized | Compound NOT metabolized | Compound NOT metabolized
4 | Nc1nc2ccc(OC(F)(F)F)cc2s1 [RILUZOLE] | Compound NOT metabolized | Compound NOT metabolized | Compound NOT metabolized | Compound metabolized | Compound NOT metabolized | Compound metabolized | Compound metabolized | Compound NOT metabolized | Compound NOT metabolized | Compound NOT metabolized | Compound metabolized | Compound NOT metabolized | Compound NOT metabolized | Compound NOT metabolized | Compound NOT metabolized | – | Compound metabolized | Compound NOT metabolized | Compound NOT metabolized | Compound NOT metabolized
5 | CC(N)C12CC3CC(CC(C3)C1)C2 (stereo unspecified) [RIMANTADINE] | Compound NOT metabolized | Compound NOT metabolized | Compound NOT metabolized | – | Compound NOT metabolized | Compound NOT metabolized | Compound NOT metabolized | – | Compound NOT metabolized | Compound NOT metabolized | Compound NOT metabolized | Compound NOT metabolized | Compound NOT metabolized | Compound NOT metabolized | Compound NOT metabolized | – | Compound NOT metabolized | Compound NOT metabolized | – | Compound NOT metabolized
6 | CN(C)CCc1c[nH]c2ccc(Cn3cncn3)cc12.O=C(O)c1ccccc1 [RIZATRIPTAN BENZOATE] | Compound NOT metabolized | Compound NOT metabolized | Compound NOT metabolized | Compound NOT metabolized | Compound NOT metabolized | Compound NOT metabolized | – | Compound NOT metabolized | – | Compound NOT metabolized | Compound NOT metabolized | Compound NOT metabolized | – | Compound NOT metabolized | Compound NOT metabolized | – | – | Compound NOT metabolized | Compound NOT metabolized | Compound NOT metabolized
7 | CCN1CCCC1CNC(=O)c1cc(S(N)(=O)=O)ccc1OC (stereo unspecified) [SULPIRIDE] | Compound NOT metabolized | Compound NOT metabolized | Compound NOT metabolized | Compound NOT metabolized | Compound NOT metabolized | – | Compound NOT metabolized | Compound NOT metabolized | – | Compound NOT metabolized | Compound NOT metabolized | Compound NOT metabolized | Compound NOT metabolized | Compound NOT metabolized | Compound NOT metabolized | Compound NOT metabolized | Compound NOT metabolized | – | Compound NOT metabolized | Compound NOT metabolized
8 | COc1ccc(CN2CCNCC2)c(OC)c1OC.Cl.Cl [TRIMETAZIDINE DIHYDROCHLORIDE] | Compound NOT metabolized | Compound NOT metabolized | Compound NOT metabolized | Compound metabolized | Compound NOT metabolized | – | Compound metabolized | Compound metabolized | – | Compound NOT metabolized | Compound NOT metabolized | Compound NOT metabolized | Compound NOT metabolized | Compound NOT metabolized | Compound NOT metabolized | Compound NOT metabolized | Compound metabolized | Compound metabolized | Compound NOT metabolized | Compound NOT metabolized
